Consider one compound from patent US10383332B2, “Antimicrobial compositions and related methods of use” (Jeneil Biosurfactant Company, LLC, priority 2013, dated 2019).

Molecules are shown by their SMILES.

Common to all, as to test: Vapor test, microcup on PDA Petri plate
Conditions in all cases: vapors

The subject of experiment [1] is Phytophthora palmivora.
Experiment [2] concerns Cercospora beticola.
Experiment [3] concerns Rhizoctonia solani.
Experiment [4] deals with Aspergillus fumigatus.
For experiment [5], the system named is Geotrichum candidum.
The subject of experiment [6] is Botrytis alli.
Experiment [7] has as its system Pythium ultimum.
For experiment [8], the system named is Aspergillus niger.

`CCC(=O)O` [Propanoic Acid, propanoic acid]: the “% inhibition, alone at 20 μl After 24 hr (C)” value was found to be 100% in experiment [1]; 75% in experiment [2]; 80% in experiment [3]; 0% in experiment [4]; 0% in experiment [5]; 0% in experiment [6]. Also, the results for the “% inhibition, alone at 20 μl After 24 hr (C)” value in experiment [7] and in experiment [8] were 80% and 0%, respectively. Besides, the “Alive or dead, alone at 20 μl After 24 hr (C)” value in experiment [2], in experiment [3], in experiment [4], in experiment [5], in experiment [6] and in experiment [7] was “Alive” throughout. Besides, the “Alive or dead, alone at 20 μl After 24 hr (C)” value in experiment [8] is given as “Alive”.
